Results taken from patent US10702531B2, “Pyrazolopyrimidine compound as PI3K inhibitor and use thereof” (Shenzhen Bo Li Jian Medicine Co., Ltd., priority 2016, dated 2020).

Assays:
lymphoma cell SU-DHL-6 = experiment: CellTiter-Glo inhibition of proliferation of lymphoma cell SU-DHL-6; type: cell-based; details: Homo sapiens, 72 hours
Method: CellTiter-Glo testing method was used to test the inhibition of the proliferation of lymphoma cell SU-DHL-6 (ATCC, Catalog number: CRL-2959) by the compounds. The cell culture solution used in the test was RPMI1640 (Invitrogen, Catalog number: 11875-093). 10% fetal calf serum (Invitrogen, Catalog number: 10099-141) was used in the test.
100 μL of culture solution containing 15000 cells was distributed to wells of a 96-well plate (Corning #3903). The plate was placed in a carbon dioxide incubator overnight. 0.5 μL of the compound (which was prepared using DMSO to have eight continuous concentration gradients) to be tested was added to each of the wells the next day. Each concentration was set with two replicates, and a well without cell (blank control) and a DMSO-well (solvent control). After dosing, the cells were cultured at 37° C. in 5% CO2 atmosphere for 72 hours. At last, 100 μL of CellTiter-Glo agent (Promega, Catalog number: G7571) was added to each of the wells. Luminescence signal was detected using Flex Station3 (Molecular Devices), and the IC50 value of each of the compounds inhibiting cell proliferation was calculated using XLfit software (Table 1).

[1] = molecular target: T1, PI3Kδ kinase (p110δ/p85α) (Homo sapiens, UniProt O00329); experiment: Activity of PI3Kδ kinase by ADP-Glo method; type: biochemical; details: 17 nM kinase, 50 μM PIP2, 25 μM ATP
T1 construct: purchased Millipore 14-604-K
T1 sequence (O00329 whole entry): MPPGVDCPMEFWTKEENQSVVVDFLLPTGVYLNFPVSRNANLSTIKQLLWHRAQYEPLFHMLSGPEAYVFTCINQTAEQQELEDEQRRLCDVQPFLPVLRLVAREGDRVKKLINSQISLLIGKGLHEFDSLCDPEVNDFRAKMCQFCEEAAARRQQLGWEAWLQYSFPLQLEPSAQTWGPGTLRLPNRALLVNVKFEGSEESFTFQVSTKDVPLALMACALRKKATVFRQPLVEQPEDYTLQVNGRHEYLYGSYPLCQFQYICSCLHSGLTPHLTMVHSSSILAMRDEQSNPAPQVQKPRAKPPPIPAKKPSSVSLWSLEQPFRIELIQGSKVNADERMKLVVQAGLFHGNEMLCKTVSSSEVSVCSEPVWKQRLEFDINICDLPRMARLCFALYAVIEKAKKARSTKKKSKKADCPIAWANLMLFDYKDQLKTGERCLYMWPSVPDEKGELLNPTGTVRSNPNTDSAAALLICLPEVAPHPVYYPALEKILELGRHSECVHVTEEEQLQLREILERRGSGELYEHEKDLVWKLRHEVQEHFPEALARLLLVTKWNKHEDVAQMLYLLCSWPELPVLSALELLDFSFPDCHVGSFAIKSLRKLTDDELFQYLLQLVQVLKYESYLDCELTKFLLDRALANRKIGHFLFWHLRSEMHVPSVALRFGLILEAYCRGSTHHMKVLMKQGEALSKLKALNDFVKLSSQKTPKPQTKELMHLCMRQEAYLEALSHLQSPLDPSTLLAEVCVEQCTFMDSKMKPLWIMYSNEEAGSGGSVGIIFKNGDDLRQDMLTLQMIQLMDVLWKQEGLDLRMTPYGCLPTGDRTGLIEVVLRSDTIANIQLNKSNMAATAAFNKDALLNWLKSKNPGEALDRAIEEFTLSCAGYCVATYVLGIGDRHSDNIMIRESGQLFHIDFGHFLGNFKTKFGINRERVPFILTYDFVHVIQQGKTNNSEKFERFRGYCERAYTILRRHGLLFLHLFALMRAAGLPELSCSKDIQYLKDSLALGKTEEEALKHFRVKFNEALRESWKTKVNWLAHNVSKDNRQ
T1 sequence (P27986 whole entry partner): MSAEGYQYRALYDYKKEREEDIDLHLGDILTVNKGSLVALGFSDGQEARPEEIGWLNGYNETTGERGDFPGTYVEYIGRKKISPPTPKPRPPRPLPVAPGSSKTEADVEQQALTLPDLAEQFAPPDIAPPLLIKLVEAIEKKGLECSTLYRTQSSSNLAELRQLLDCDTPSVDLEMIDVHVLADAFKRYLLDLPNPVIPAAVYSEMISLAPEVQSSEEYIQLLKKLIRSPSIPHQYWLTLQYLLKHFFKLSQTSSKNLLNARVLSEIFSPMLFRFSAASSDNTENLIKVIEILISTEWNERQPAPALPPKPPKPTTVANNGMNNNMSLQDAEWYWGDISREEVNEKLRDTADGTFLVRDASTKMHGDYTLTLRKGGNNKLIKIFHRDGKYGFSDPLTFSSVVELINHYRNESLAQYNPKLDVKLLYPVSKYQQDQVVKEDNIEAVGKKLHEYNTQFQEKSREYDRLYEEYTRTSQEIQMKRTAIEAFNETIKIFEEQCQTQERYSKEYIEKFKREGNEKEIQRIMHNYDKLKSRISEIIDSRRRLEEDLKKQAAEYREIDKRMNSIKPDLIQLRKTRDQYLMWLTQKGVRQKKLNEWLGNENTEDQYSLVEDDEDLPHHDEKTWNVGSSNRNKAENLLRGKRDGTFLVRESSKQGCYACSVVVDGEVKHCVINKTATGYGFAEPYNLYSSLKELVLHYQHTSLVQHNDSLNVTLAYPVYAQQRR
Method: Activity of PI3Kδ kinase was tested by ADP-Glo method. ADP-Glo was obtained from Promega (#V9101). p110δ/p85α was obtained from Millipore (#14-604-K). The IC50 of each of the compounds was evaluated by testing the compound at 10 concentrations. The starting concentration was 1 μM, and then a 3-fold serial dilution was performed. Buffer solutions for the testing were 50 mM HEPES pH 7.5, 3 mM MgCl2, 1 mM EGTA, 100 mM NaCl, 0.03% CHAPS, and 2 mM DTT. The final concentration of the PI3Kδ kinase was 17 nM; the final concentration of PIP2 was 50 μM; and the final concentration of ATP was 25 μM.
1. Preparation of 10 μL of kinase reaction solution: 2.5 μL of test compound solution, 2.5 μL of kinase solution, and 5 μL of substrate solution were added to each well of a 384-well plate (Corning #4512).
2. The 384-well plate was covered and incubated at room temperature for 60 minutes.
3. 5 μL of reaction solution was transferred from each well to the wells of a new 384-well plate.
4. 5 μL of ADP-Glo reagent was added to the wells of the 384-well plate to terminate the reaction.
5. The 384-well plate was shaken gently on a shaking machine. 6. 10 μL of kinase detection reagent was added to each of the wells, followed by shaking for 1 minute and allowing to standing at room temperature for 30 minutes.
8. The luminescence values of the sample were read using Synegy. 9. Data were processed using Excel and was curve-fitted using XLFit software to obtain the IC50 value of each of the compounds (Table 1).

| IC50 (lymphoma cell SU-DHL-6) [µM] | IC50 [1] [µM] | Structure (SMILES) |
| --- | --- | --- |
| 0.02 to 0.1 | < 0.02 | C[C@H](Nc1ncnc(N)c1C#N)c1cn2ncc(Cl)c2nc1-c1ccccc1 [Example 1, (S)-4-amino-6-(1-(3-chloro-5-phenylpyrazolo[1,5-a]pyrimidin-6-yl)ethylamino) pyrimidin-5-carbonitrile] |
| < 0.02 | < 0.02 | C[C@H](Nc1nc(N)nc(N)c1C#N)c1cn2ncc(Cl)c2nc1-c1cccc(F)c1 [Example 3, (S)-2,4-diamino-6-(1-(3-chloro-5-(3-fluorophenyl)pyrazolo[1,5-a]pyrimidin-6-yl)ethylamino)pyrimidin-5-carbonitrile] |
| 0.02 to 0.1 | < 0.02 | C[C@H](Nc1ncnc(N)c1C#N)c1cn2ncc(Cl)c2nc1-c1cccc(F)c1 [Example 4, (S)-4-amino-6-(1-(3-chloro-5-(3-fluorophenyl)pyrazolo[1,5-a]pyrimidin-6-yl)ethylamino)pyrimidin-5-carbonitrile] |
| 0.02 to 0.1 | < 0.02 | Cc1nc(N)nc(N[C@@H](C)c2cn3ncc(Cl)c3nc2-c2ccccc2)c1C#N [Example 5, (S)-2-amino-4-((1-(3-chloro-5-phenylpyrazolo[1,5-a]pyrimidin-6-yl)ethyl)amino)-6-methylpyrimidin-5-carbonitrile] |
| < 0.02 | < 0.02 | C[C@H](Nc1nc(N)nc(N)c1C#N)c1cn2ncc(Cl)c2nc1-c1ccccc1 [Example 2, (S)-2,4-diamino-6-(1-(3-chloro-5-phenylpyrazolo[1,5-a]pyrimidin-6-yl)ethylamino)pyrimidin-5-carbonitrile] |
